The values below come from US8420675B2, “Aminotetrahydroindazoloacetic acids” (Hoffmann-La Roche Inc., priority 2008, dated 2013).

pIC50: −log10 of the molar value.

The test concerns the target T1, human CRTH2 (Homo sapiens, UniProt Q9Y5Y4).
T1 construct: expressed in transfected cells
T1 sequence (Q9Y5Y4 1-395): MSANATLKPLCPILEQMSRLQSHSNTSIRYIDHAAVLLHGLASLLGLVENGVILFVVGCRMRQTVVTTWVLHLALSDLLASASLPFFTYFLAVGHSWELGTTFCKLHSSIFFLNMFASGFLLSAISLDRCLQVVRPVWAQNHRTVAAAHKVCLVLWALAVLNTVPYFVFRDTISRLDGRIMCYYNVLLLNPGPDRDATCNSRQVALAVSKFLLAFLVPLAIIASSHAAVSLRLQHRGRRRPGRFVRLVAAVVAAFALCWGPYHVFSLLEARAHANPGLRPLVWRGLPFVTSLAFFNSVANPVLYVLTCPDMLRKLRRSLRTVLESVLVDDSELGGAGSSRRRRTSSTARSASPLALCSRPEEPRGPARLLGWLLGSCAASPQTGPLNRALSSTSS
Kind of test: Human CRTH2 Receptor Binding Assay (whole cell, [3H]ramatroban competition). The settings on record: CHO-K1 cells expressing human CRTH2 and G-alpha16; 20 nM [3H]ramatroban; 1 hour, room temperature. An excerpt: A whole cell receptor binding assay using [^3H]ramatroban as the competing radioactive ligand was employed to evaluate the compound binding activity to human CRTH2. The radioactive ligand [^3H]ramatroban was synthesized according to Sugimoto et. al. (Eur. J. Pharmacol. 524, 30-37, 2005) to a specific activity of 42 Ci/mmol.
A cell line stably expressing human CRTH2 was established by transfecting CHO-K1 cells with two mammalian expression vectors that harbored human CRTH2 and G-alpha16 cDNAs, respectively, using FuGene® 6 transfection reagent (from Roche). Stable clones expressing CRTH2 were selected by staining each clone with BM16 (BD Pharmingen™ from BD Biosciences, a division of Becton, Dickinson and Company), which is a rat monoclonal antibody to human CRTH2. The cells were maintained as monolayer cultures in Ham's F-12 medium containing 10% fetal bovine serum, 100 units/mL penicillin, 100 μg/mL streptomycin, 2 mM glutamine, 0.5 mg/mL G418 (geneticin) for CRTH2, and 0.2 mg/mL hygromycin-B (for G-alpha 16). For whole cell receptor binding assay, the monolayer cells were rinsed once with PBS (phosphate buffered saline), dissociated using ethylenediaminetetraacetate (Versene™ EDTA Lonza Inc.), and suspended in PBS containing 10 mM MgCl2 and 0.06% BSA (bovine serum albumin) at 1.5×10^6 cells/mL.
The binding reactions (0.2 mL) were performed in 96-well plates at room temperature in PBS containing 1.5×10^5 cells, 10 mM MgCl2, 0.06% BSA, 20 nM [^3H]ramatroban, and test compound at various concentrations. After 1 hour of binding reactions, the cells were harvested on GF™/B filter microplates (microtiter plates with embedded glass fiber from PerkinElmer, Inc.) and washed 5 times with PBS using a Filtermate™ Harvester (a cell harvester that harvests and washes cells from microplates from PerkinElmer, Inc.). The radioactivities bound to the cells were determined using a microplate scintillation counter (TopCount® NXT, from PerkinElmer, Inc.) after adding 50 μL of Microscint™ 20 scintillation fluid (from PerkinElmer, Inc.) to each well of the filter plates. The radioactivity from non-specific binding was determined by replacing compound with 10 μM of 15(R)-15-methyl PGD2 (from Cayman Chemical Company) in the reaction mixtures. The radioactivity bound to the cells in the absence of compound (total binding) was determined by replacing compound with 0.25% of DMSO (dimethyl sulfoxide) in the reaction mixture. Specific binding data were obtained by subtracting the radioactivity of non-specific binding from each binding data.
The IC50 value is defined as the concentration of the tested compound that is required for 50% inhibition of total specific binding. In order to calculate the IC50 value, the percent inhibition data were determined for 7 concentrations for each compound. The percent inhibition for a compound at each concentration was calculated according to the following formula, [1-(specific binding in the presence of compound)/(total specific binding)]x100. The IC50 value was then obtained by fitting the percent inhibition data to a sigmoidal dose-response (4 parameter logistic) model in the XLfit® software Excel add-in program [from ID Business Solutions Ltd., model 205, where F(x)=(A+(B−A)/(1+((C/x)^D)))].
Consider `CN([C@@H]1CCCc2c1cnn2CC(=O)O)S(=O)(=O)c1ccc(Oc2ccc(Cl)cc2)cc1Cl` [Example 9-4a, ((R)-4-{[2-Chloro-4-(4-chloro-phenoxy)-benzenesulfonyl]-methyl-amino}-4,5,6,7-tetrahydro-indazol-1-yl)-acetic acid], for which the pIC50 (as a rule, the IC50 on a negative log10 scale, so that one unit is a factor of ten) is 7.43.

Turning to `CN([C@@H]1CCCc2c1cnn2CC(=O)O)S(=O)(=O)c1ccc(Oc2ccc(Cl)cc2)c(C(F)(F)F)c1` [Example 9-5a, ((R)-4-{[4-(4-Chloro-phenoxy)-3-trifluoromethyl-benzenesulfonyl]-methyl-amino}-4,5,6,7-tetrahydro-indazol-1-yl)-acetic acid], the pIC50 was 8.09.

In turn, `CN([C@@H]1CCCc2c1cnn2CC(=O)O)S(=O)(=O)c1ccc(Oc2ccc(Cl)cc2Cl)c(Cl)c1` [Example 9-6a, ((R)-4-{[3-Chloro-4-(2,4-dichloro-phenoxy)-benzenesulfonyl]-methyl-amino}-4,5,6,7-tetrahydro-indazol-1-yl)-acetic acid] showed a pIC50 of 7.66.

Molecule `CN([C@@H]1CCCc2c1cnn2CC(=O)O)S(=O)(=O)c1ccc(Oc2ccc(C(C)(C)C)cc2)c(Cl)c1` [Example 9-7a, ((R)-4-{[4-(4-tert-Butyl-phenoxy)-3-chloro-benzenesulfonyl]-methyl-amino}-4,5,6,7-tetrahydro-indazol-1-yl)-acetic acid] gave a pIC50 of 7.90.

Molecule `CN([C@@H]1CCCc2c1cnn2CC(=O)O)S(=O)(=O)c1ccc(Oc2ccc(Cl)cc2Cl)cc1Cl` [Example 9-8a, ((R)-4-{[2-Chloro-4-(2,4-dichloro-phenoxy)-benzenesulfonyl]-methyl-amino}-4,5,6,7-tetrahydro-indazol-1-yl)-acetic acid] gave a negative-log IC50 (pIC50) of 7.04. This pIC50 lies 0.86 log units lower than the previous one.

Molecule `CN([C@@H]1CCCc2c1cnn2CC(=O)O)S(=O)(=O)c1ccc(Oc2ccc(F)cc2Cl)cc1Cl` [Example 9-9a, ((R)-4-{[2-Chloro-4-(2-chloro-4-fluoro-phenoxy)-benzenesulfonyl]-methyl-amino}-4,5,6,7-tetrahydro-indazol-1-yl)-acetic acid] showed a pIC50 of 7.15.

In the case of `CN([C@@H]1CCCc2c1cnn2CC(=O)O)S(=O)(=O)c1ccc(Oc2ccccc2Cl)cc1Cl` [Example 9-10a, ((R)-4-{[2-Chloro-4-(2-chloro-phenoxy)-benzenesulfonyl]-methyl-amino}-4,5,6,7-tetrahydro-indazol-1-yl)-acetic acid], the pIC50 is 7.01. This pIC50 and that of the molecule before are within 0.2 log units of each other.

In turn, `CN([C@@H]1CCCc2c1cnn2CC(=O)O)S(=O)(=O)c1ccc(Oc2ccc(Cl)cc2F)c(Cl)c1` [Example 9-11a, ((R)-4-{[3-Chloro-4-(4-chloro-2-fluoro-phenoxy)-benzenesulfonyl]-methyl-amino}-4,5,6,7-tetrahydro-indazol-1-yl)-acetic acid] had a negative logarithm of the IC50 (pIC50) of 8.14.

Molecule `CN([C@@H]1CCCc2c1cnn2CC(=O)O)S(=O)(=O)c1ccc(Oc2ccc(Cl)cc2)c(F)c1` [Example 9-12a, ((R)-4-{[4-(4-Chloro-phenoxy)-3-fluoro-benzenesulfonyl]-methyl-amino}-4,5,6,7-tetrahydro-indazol-1-yl)-acetic acid] gave a pIC50 of 8.13.

Take `CN([C@@H]1CCCc2c1cnn2CC(=O)O)S(=O)(=O)c1ccc(Oc2ccccc2)c(Cl)c1` [Example 9-13a, {(R)-4-[(3-Chloro-4-phenoxy-benzenesulfonyl)-methyl-amino]-4,5,6,7-tetrahydro-indazol-1-yl}-acetic acid]: the pIC50 is 8.02.

`CN([C@@H]1CCCc2c1cnn2CC(=O)O)S(=O)(=O)c1ccc(Oc2ccc(F)cc2)c(Cl)c1` [Example 9-14a, ((R)-4-{[3-Chloro-4-(4-fluoro-phenoxy)-benzenesulfonyl]-methyl-amino}-4,5,6,7-tetrahydro-indazol-1-yl)-acetic acid] showed a pIC50 of 8.36.

Molecule `Cc1ccc(Oc2ccc(S(=O)(=O)N(C)[C@@H]3CCCc4c3cnn4CC(=O)O)cc2Cl)cc1` [Example 9-15a, {(R)-4-[(3-Chloro-4-p-tolyloxy-benzenesulfonyl)-methyl-amino]-4,5,6,7-tetrahydro-indazol-1-yl}-acetic acid] had a pIC50 of 7.99.

For `CN([C@@H]1CCCc2c1cnn2CC(=O)O)S(=O)(=O)c1ccc(Oc2ccc(F)cc2Cl)c(Cl)c1` [Example 9-16a, ((R)-4-{[3-Chloro-4-(2-chloro-4-fluoro-phenoxy)-benzenesulfonyl]-methyl-amino}-4,5,6,7-tetrahydro-indazol-1-yl)-acetic acid], the pIC50 was 8.10. The pIC50 values of the last two molecules are within 0.2 log units of each other.

Turning to `COc1cc(F)ccc1Oc1ccc(S(=O)(=O)N(C)[C@@H]2CCCc3c2cnn3CC(=O)O)cc1Cl` [Example 9-17a, ((R)-4-{[3-Chloro-4-(4-fluoro-2-methoxy-phenoxy)-benzenesulfonyl]-methyl-amino}-4,5,6,7-tetrahydro-indazol-1-yl)-acetic acid], the negative logarithm of the IC50 (pIC50) was 7.89.

As for `Cc1ccc(Cl)c(Oc2ccc(S(=O)(=O)N(C)[C@@H]3CCCc4c3cnn4CC(=O)O)cc2Cl)c1` [Example 9-18a, ((R)-4-{[3-Chloro-4-(2-chloro-5-methyl-phenoxy)-benzenesulfonyl]-methyl-amino}-4,5,6,7-tetrahydro-indazol-1-yl)-acetic acid], the pIC50 is 7.87.

In turn, `Cc1ccc(Oc2ccc(S(=O)(=O)N(C)[C@@H]3CCCc4c3cnn4CC(=O)O)cc2Cl)c(C)c1` [Example 9-19a, ((R)-4-{[3-Chloro-4-(2,4-dimethyl-phenoxy)-benzenesulfonyl]-methyl-amino}-4,5,6,7-tetrahydro-indazol-1-yl)-acetic acid] showed a negative-log IC50 (pIC50) of 7.94.

For `COc1cc(Cl)ccc1Oc1ccc(S(=O)(=O)N(C)[C@@H]2CCCc3c2cnn3CC(=O)O)cc1Cl` [Example 9-20a, ((R)-4-{[3-Chloro-4-(4-chloro-2-methoxy-phenoxy)-benzenesulfonyl]-methyl-amino}-4,5,6,7-tetrahydro-indazol-1-yl)-acetic acid], the pIC50 is 7.99.

The molecule `CN([C@@H]1CCCc2c1cnn2CC(=O)O)S(=O)(=O)c1ccc(Oc2ccc(Cl)c(F)c2)c(Cl)c1` [Example 9-21a, ((R)-4-{[3-Chloro-4-(4-chloro-3-fluoro-phenoxy)-benzenesulfonyl]-methyl-amino}-4,5,6,7-tetrahydro-indazol-1-yl)-acetic acid] showed a pIC50 of 7.88.

Take `CN([C@@H]1CCCc2c1cnn2CC(=O)O)S(=O)(=O)c1ccc(Oc2cc(F)ccc2F)c(Cl)c1` [Example 9-22a, ((R)-4-{[3-Chloro-4-(2,5-difluoro-phenoxy)-benzenesulfonyl]-methyl-amino}-4,5,6,7-tetrahydro-indazol-1-yl)-acetic acid]: the pIC50 is 7.62.

In the case of `CN([C@@H]1CCCc2c1cnn2CC(=O)O)S(=O)(=O)c1ccc(Oc2ccc(Br)cc2)c(Cl)c1` [Example 9-23a, ((R)-4-{[4-(4-Bromo-phenoxy)-3-chloro-benzenesulfonyl]-methyl-amino}-4,5,6,7-tetrahydro-indazol-1-yl)-acetic acid], the pIC50 is 8.17.

In turn, `CN([C@@H]1CCCc2c1cnn2CC(=O)O)S(=O)(=O)c1ccc(Oc2ccc(F)c(Cl)c2)c(Cl)c1` [Example 9-24a, ((R)-4-{[3-Chloro-4-(3-chloro-4-fluoro-phenoxy)-benzenesulfonyl]-methyl-amino}-4,5,6,7-tetrahydro-indazol-1-yl)-acetic acid] showed a negative-log IC50 (pIC50) of 7.78.
